Test [1] has as its target T1, UrdA′ (two-domain UrdA) (Shewanella oneidensis, UniProt Q8CVD0).
T1 construct: clamp and FAD domains, residues 130-582, C-terminal 6xHis kept, N-terminal FMN domain absent; E. coli TUNER(DE3) (mutants BL21(DE3)); mostly monomer
The experiment in a line: X-ray structure ([…] Å). The test is classed as binding. Conditions: no substrate bound; sulfate in active site; FAD also in 6T87 and 6T88.

Test [2] concerns the target T1, UrdA′ (two-domain UrdA). The experiment in a line: X-ray structure ([…] Å); activity inhibition. Conditions: ADP in the FAD-binding site; no urocanate bound, glycerol in substrate site.

T1 sequence (Q8CVD0 130-582): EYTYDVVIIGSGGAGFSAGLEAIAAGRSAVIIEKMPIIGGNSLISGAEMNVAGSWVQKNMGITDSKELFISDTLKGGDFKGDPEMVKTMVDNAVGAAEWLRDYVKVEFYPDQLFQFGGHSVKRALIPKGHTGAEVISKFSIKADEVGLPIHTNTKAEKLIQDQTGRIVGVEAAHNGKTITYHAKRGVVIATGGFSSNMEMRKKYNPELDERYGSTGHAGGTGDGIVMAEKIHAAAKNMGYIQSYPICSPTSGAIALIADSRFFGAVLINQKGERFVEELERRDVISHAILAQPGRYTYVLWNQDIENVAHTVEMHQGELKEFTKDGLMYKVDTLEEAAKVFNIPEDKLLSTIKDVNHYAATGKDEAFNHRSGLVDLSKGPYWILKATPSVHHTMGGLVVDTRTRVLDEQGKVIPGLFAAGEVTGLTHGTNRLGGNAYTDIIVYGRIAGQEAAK

Turning to `Cc1cc2nc3c(=O)[nH]c(=O)nc-3n(C[C@H](O)[C@H](O)[C@H](O)COP(=O)(O)OP(=O)(O)OC[C@H]3O[C@@H](n4cnc5c(N)ncnc54)[C@H](O)[C@@H]3O)c2cc1C` [FAD], the “X-ray structure (2.56 Å)” value at UrdA′ (two-domain UrdA) [1] is 6T86 for apo-FAD, 6T87 for uro-FAD, and 6T88 for imp-FAD.
Take `Nc1ncnc2c1ncn2[C@@H]1O[C@H](COP(=O)(O)OP(=O)(O)O)[C@@H](O)[C@H]1O` [ADP]: on UrdA′ (two-domain UrdA) [2], the “X-ray structure (1.1 Å); activity inhibition” value is listed as “supported by the ADP-induced inhibition of UrdA′ activity”.

The record behind these values is publication PMC7921117, “Structural characterization of the microbial enzyme urocanate reductase mediating imidazole propionate production” (Nature Communications, 2021).
